Here are results for 5 compounds from patent US20220340629A1, “Myosin Derived Peptides and Related Compounds with Anticoagulant Activities” (THE SCRIPPS RESEARCH INSTITUTE, priority 0001, published 2022).

Starred links: 1 amine or outer side, 2 acyl side, 3 side chain; linkers in the order of their positions; H or OH if unused. Positions of bridges follow the written chain, without caps; N, C: chain ends. Residues, ends and D or L forms follow the SMILES beside them. Suc = O=C(CCC(=O)[*:2])[*:1]

The experiment has as its system thrombin generation in human platelet poor plasma with skeletal muscle myosin. The experiment can be described thus: Assay 2A: thrombin generation, recalcification of human platelet poor plasma + myosin. It is filed as biochemical. Particulars: human platelet poor plasma 30%, myosin 50 nM, CaCl2 10 mmol/L; read-out: 2A (recalcification +myosin). On the procedure:
Activities of the various peptides and derivative compounds were also examined via assays using recalcification of human plasma. [One of] these assay format (2A) involves monitoring thrombin generation in platelet poor plasma (PPP). Specifically, pooled normal human platelet poor plasma (PPP) (obtained from George King Bio Medical Inc., Overland Park, Kans.) (30%) was incubated with skeletal muscle myosin at 50 nM in the presence of peptide in DMSO or DMSO alone for 5 min at 37° C. Then, fluorogenic thrombin substrate solution (Z-Gly-Gly-Arg-AMC) (I-1140) with CaCl2 (10 mmol/L final) alone was added to the reaction mixture (total 110 μl) to initiate coagulation. Thrombin generation was followed continuously for 25 min using SPECTRAmax GEMINI XS fluorometer (Molecular Devices, Sunnyvale, Calif.) with excitation and emission wavelengths set at 360 and 460 nm, respectively. The first derivative of fluorescence versus time was used to produce thrombin generation curves with the correction for substrate consumption and inner filter effect. For this assay 96 well plate (total 110 μL) or 384 well plates (total 30 μL) were used.
Activities obtained from Assay 2A (recalcification of human plasma in the presence of myosin) were used to rank the various peptides listed in Table 3. As noted above, this assay monitors recalcification of plasma to stimulate thrombin generation. In this assay, potency of the compounds was determined as the peptide concentration for 50% inhibition of thrombin generation, defined as “IC50”.
As to `CC[C@H](C)[C@H](NC(=O)[C@H](C)N)C(=O)N[C@@H](Cc1ccccc1)C(=O)N[C@@H](CS)C(=O)N[C@H](C(=O)N[C@@H](CCC(N)=O)C(=O)N[C@@H](Cc1ccc(O)cc1)C(=O)N[C@@H](CC(N)=O)C(=O)N[C@H](C(=O)N[C@@H](CCCNC(=N)N)C(=O)N[C@@H](CO)C(=O)N[C@@H](Cc1ccccc1)C(=O)N[C@@H](CCSC)C(=O)N[C@@H](CC(N)=O)C(=O)N[C@H](C(=O)N[C@@H](CCCCN)C(=O)N[C@@H](Cc1c[nH]cn1)C(=O)N[C@@H](Cc1c[nH]c2ccccc12)C(=O)N1CCC[C@H]1C(=O)N[C@@H](Cc1c[nH]c2ccccc12)C(=O)N[C@@H](CCSC)C(=O)N[C@@H](CCCCN)C(=O)N[C@@H](CC(C)C)C(=O)N[C@@H](Cc1ccccc1)C(=O)N[C@@H](Cc1ccccc1)C(=O)N[C@@H](CCCCN)C(=O)N[C@H](C(=O)N[C@@H](CCCCN)C(N)=O)[C@@H](C)CC)C(C)C)[C@@H](C)CC)[C@@H](C)CC` [HC101] (H-AIFCIQYNIRSFMNVKHWPWMKLFFKIK-NH2; N-terminus and C-terminus assumed), the IC50 was 9 µM. `CC[C@H](C)[C@H](NC(=O)[C@H](C)NC(=O)[C@H](CCC(=O)O)NC(=O)[C@H](CCCNC(=N)N)NC(=O)[C@H](CCCNC(=N)N)NC(=O)[C@H](CCC(=O)O)NC(=O)[C@@H]1CCCCNC(=O)CCC(=O)NCCCC[C@@H]2NC(=O)[C@H](C)NC(=O)[C@H](CC(C)C)NC(=O)[C@H](Cc3ccccc3)NC(=O)CNC(=O)[C@H](CCCNC(=N)N)NC(=O)[C@@H](NC(=O)[C@H](CCCNC(=N)N)NC(=O)[C@H](C)N)CCCCNC(=O)CCC(=O)NCCCC[C@H](NC2=O)C(=O)N[C@@H](CCC(=O)O)C(=O)N[C@@H](Cc2ccc(O)cc2)C(=O)N[C@@H](CCC(N)=O)C(=O)N[C@@H](CCCNC(=N)N)C(=O)N[C@@H](CCSC)C(=O)N1)C(=O)N[C@@H](Cc1ccccc1)C(=O)N[C@@H](CS)C(=O)N[C@H](C(=O)N[C@@H](CCC(N)=O)C(=O)N[C@@H](Cc1ccc(O)cc1)C(=O)N[C@@H](CC(N)=O)C(=O)N[C@H](C(=O)N[C@@H](CCCNC(=N)N)C(=O)N[C@@H](CO)C(=O)N[C@@H](Cc1ccccc1)C(=O)N[C@@H](CCSC)C(=O)N[C@@H](CC(N)=O)C(=O)N[C@H](C(=O)N[C@@H](CCCCN)C(=O)N[C@@H](Cc1c[nH]cn1)C(=O)N[C@@H](Cc1c[nH]c2ccccc12)C(=O)N1CCC[C@H]1C(=O)N[C@@H](Cc1c[nH]c2ccccc12)C(N)=O)C(C)C)[C@@H](C)CC)[C@@H](C)CC` [HC153] (H-ARKRGFLAKKEYQRMKERREAIFCIQYNIRSFMNVKHWPW-NH2; linker 3-10, 9-16 via Suc (inferred); N-terminus and C-terminus assumed): the IC50 amounted to 11 µM. For the compound `CC[C@H](C)[C@H](NC(=O)[C@H](C)NC(=O)[C@H](CCC(=O)O)NC(=O)[C@H](CCCNC(=N)N)NC(=O)[C@H](CCCNC(=N)N)NC(=O)[C@H](CCC(=O)O)NC(=O)[C@@H]1CCCCNC(=O)CCC(=O)NCCCC[C@@H]2NC(=O)[C@H](C)NC(=O)[C@H](CC(C)C)NC(=O)[C@H](Cc3ccccc3)NC(=O)[C@@H](NC(=O)[C@H](CCCNC(=N)N)NC(=O)[C@H](CS)NC(=O)[C@H](CCCNC(=N)N)NC(=O)[C@H](C)N)CCCCNC(=O)CCC(=O)NCCCC[C@H](NC(=O)[C@H](CCC(=O)O)NC(=O)[C@H](C(C)C)NC2=O)C(=O)N[C@@H](CCC(N)=O)C(=O)N[C@@H](CCCNC(=N)N)C(=O)N[C@@H](CCSC)C(=O)N1)C(=O)N[C@@H](Cc1ccccc1)C(=O)N[C@@H](CS)C(=O)N[C@H](C(=O)N[C@@H](CCC(N)=O)C(=O)N[C@@H](Cc1ccc(O)cc1)C(=O)N[C@@H](CC(N)=O)C(=O)N[C@H](C(=O)N[C@@H](CCCNC(=N)N)C(=O)N[C@@H](CO)C(=O)N[C@@H](Cc1ccccc1)C(=O)N[C@@H](CCSC)C(=O)N[C@@H](CC(N)=O)C(=O)N[C@H](C(=O)N[C@@H](CCCCN)C(=O)N[C@@H](Cc1c[nH]cn1)C(=O)N[C@@H](Cc1c[nH]c2ccccc12)C(=O)N1CCC[C@H]1C(=O)N[C@@H](Cc1c[nH]c2ccccc12)C(N)=O)C(C)C)[C@@H](C)CC)[C@@H](C)CC` [HC154] (H-ARCRKFLAKVEKQRMKERREAIFCIQYNIRSFMNVKHWPW-NH2; linker 5-12, 9-16 via Suc (inferred); N-terminus and C-terminus assumed), the IC50 is 9.4 µM. Turning to `CC[C@H](C)[C@H](NC(=O)[C@H](C)NC(=O)[C@H](CCC(=O)O)NC(=O)[C@H](CCCNC(=N)N)NC(=O)[C@H](CCCNC(=N)N)NC(=O)[C@H](CCC(=O)O)NC(=O)[C@@H]1CCCCNC(=O)CCC(=O)NCCCC[C@@H]2NC(=O)[C@H](C)NC(=O)[C@H](CC(C)C)NC(=O)[C@@H](NC(=O)CNC(=O)[C@H](CCCNC(=N)N)NC(=O)[C@H](CS)NC(=O)[C@H](CCCNC(=N)N)NC(=O)[C@H](C)N)CCCCNC(=O)CCC(=O)NCCCC[C@H](NC(=O)[C@H](Cc3ccc(O)cc3)NC(=O)[C@H](CCC(=O)O)NC(=O)[C@H](C(C)C)NC2=O)C(=O)N[C@@H](CCCNC(=N)N)C(=O)N[C@@H](CCSC)C(=O)N1)C(=O)N[C@@H](Cc1ccccc1)C(=O)N[C@@H](CS)C(=O)N[C@H](C(=O)N[C@@H](CCC(N)=O)C(=O)N[C@@H](Cc1ccc(O)cc1)C(=O)N[C@@H](CC(N)=O)C(=O)N[C@H](C(=O)N[C@@H](CCCNC(=N)N)C(=O)N[C@@H](CO)C(=O)N[C@@H](Cc1ccccc1)C(=O)N[C@@H](CCSC)C(=O)N[C@@H](CC(N)=O)C(=O)N[C@H](C(=O)N[C@@H](CCCCN)C(=O)N[C@@H](Cc1c[nH]cn1)C(=O)N[C@@H](Cc1c[nH]c2ccccc12)C(=O)N1CCC[C@H]1C(=O)N[C@@H](Cc1c[nH]c2ccccc12)C(N)=O)C(C)C)[C@@H](C)CC)[C@@H](C)CC` [HC155] (H-ARCRGKLAKVEYKRMKERREAIFCIQYNIRSFMNVKHWPW-NH2; linker 6-13, 9-16 via Suc (inferred); N-terminus and C-terminus assumed), the IC50 was 9.5 µM.

Consider `CC[C@H](C)[C@H](NC(=O)[C@H](C)NC(=O)[C@H](CCC(=O)O)NC(=O)[C@H](CCCNC(=N)N)NC(=O)[C@H](CCCNC(=N)N)NC(=O)[C@@H]1CCCCNC(=O)CCC(=O)NCCCC[C@@H]2NC(=O)[C@@H](NC(=O)[C@H](C)NC(=O)[C@H](CC(C)C)NC(=O)[C@H](Cc3ccccc3)NC(=O)CNC(=O)[C@H](CCCNC(=N)N)NC(=O)[C@H](CS)NC(=O)[C@H](CCCNC(=N)N)NC(=O)[C@H](C)N)CCCCNC(=O)CCC(=O)NCCCC[C@H](NC(=O)[C@H](CCSC)NC(=O)[C@H](CCCNC(=N)N)NC(=O)[C@H](CCC(N)=O)NC(=O)[C@H](Cc3ccc(O)cc3)NC(=O)[C@H](CCC(=O)O)NC2=O)C(=O)N1)C(=O)N[C@@H](Cc1ccccc1)C(=O)N[C@@H](CS)C(=O)N[C@H](C(=O)N[C@@H](CCC(N)=O)C(=O)N[C@@H](Cc1ccc(O)cc1)C(=O)N[C@@H](CC(N)=O)C(=O)N[C@H](C(=O)N[C@@H](CCCNC(=N)N)C(=O)N[C@@H](CO)C(=O)N[C@@H](Cc1ccccc1)C(=O)N[C@@H](CCSC)C(=O)N[C@@H](CC(N)=O)C(=O)N[C@H](C(=O)N[C@@H](CCCCN)C(=O)N[C@@H](Cc1c[nH]cn1)C(=O)N[C@@H](Cc1c[nH]c2ccccc12)C(=O)N1CCC[C@H]1C(=O)N[C@@H](Cc1c[nH]c2ccccc12)C(N)=O)C(C)C)[C@@H](C)CC)[C@@H](C)CC` [HC156] (H-ARCRGFLAKKEYQRMKKRREAIFCIQYNIRSFMNVKHWPW-NH2; linker 9-16, 10-17 via Suc (inferred); N-terminus and C-terminus assumed), for which the IC50 worked out at 9.3 µM.
